Test results reported in patent publication US5561110A, “Method for the treatment of the complications and pathology of diabetes” (Peptide Technology Limited, priority 1994, dated 1996).
“Also recorded” adds a separate entry of the source.

Columns and labels:
[1] = tested on: Salmonella typhimurium TA 100; assay: Ames test, plate incorporation, his- to his+ reversion
Description: Preparation of glycated compounds was performed according to Kim et al. (1991). In brief, D-glucose (1M) and each of the following: L-carnosine, L-lysine, L-alanine (all 1M) were dissolved in distilled water, the pH adjusted to 7 and the mixtures heated at 100° C. for 80 min. The solutions (50 μl and 250 μl ) were evaluated against strain TA 100 of Salmonells typhimurium using the plate incorporation method (Maron & Ames, 1983) with or without metabolic activation by a standard rat liver microsomal (S-9) preparation.
Salmonella tyrphimurium TA 100 indicator strain his^- to his^+ reversion system. Data represent the mean number of revertants per plate and their standard deviation for the test solutions and controls with and without metabolic stimulation by rat liver microsomal (S-9) preparation.

ovalbumin = assay: Glycation of ovalbumin by DHA with anti-glycator, gel filtration on Superose 6; format: biochemical; conditions: for effectiveness as anti-glycator, in words: ovalbumin + DHA, 60° C., 7 hours
Description: Gelfiltration Chromatography of Glycated Proteins HPLC Specifications:
COLUMN Superose 6, Pharmacia
SAMPLE: 100μ of Protein Sample (Approximately 100 μg)
Calibration was performed using Pharmacia high molecular weight (HMW) and low molecular weight (LMW) calibration kit.
To compare the effect of both carnosine and aminoguanidine on glycation bovine serum albumin (BSA) and ovalbumin was incubated with a constant amount of DHA and varying concentrations of either anti-glycator at 60° C. At the start of the reaction and after seven hours aliquots were taken and the progress of the reaction analysed by gel filtration on a Superose 6 column. Crosslinking or fragmentation of protein became clearly visible as a change in retention time compared to the untreated protein used as control. Some compounds eluted after theoretical retention time for the smallest compound. They tend to interfere with the column resin even at high ionic strength and presence of a detergent (Tween 20). They are not necessary small compounds but rather highly charged and reactive. […] In all aminoguanidine samples uncharacterised reaction products are formed predominantly at high concentrations (described as low molecular weight form "LMW" because the retention time is longer then observed for all other compounds). […] LMW were also observed when ovalbumin was replaced by bovine serum albumin in the incubation mixture (not shown). The LMW forms were never present in the camosine samples. A good measure for the effectiveness of an
Legend: ovalbumin was incubated with DHA for 7 hours in the presence of
various concentrations of either carnosine or aminoguanidine. Reaction
products were separated on a gelfiltration column (Superose 6) and peaks
grouped according to their retention times: HMW, high molecular weight
(15-30 min); albumin monomer (35 min); and late eluting compounds LMW, lo
molecular weight (>40 min). Carnosine and aminoguanidine concentration
[control] 0 mM, [A] 600 mM, [B] 300 mn, [C] 100 mM, [D] 50 mM.

mammals = conditions: cited from earlier work
bovine serum albumin = assay: Dihydroxyacetone-induced modification (non-enzymic glycosylation, gel formation) of bovine serum albumin; format: biochemical; conditions: BSA 50 mg/ml, 250 mM dihydroxyacetone, 250 mM L-carnosine, 23° C., 4 weeks
Description: Physiological concentrations of bovine serum albumin (50 mg/ml in 50 mM Na-phosphate buffer pH 7.0) were incubated with or without 250 mM dihydroxyacetone in the presence and absence of 250 mM L-carnosine at 23° C. for 4 weeks. The experiment was performed under sterile conditions and the ionic strength was the same in all vials.

[2] = tested on: Male New Zealand white cross rabbits fed a high cholesterol (2%) diet; assay: Atherosclerotic plaque formation in aorta of cholesterol-fed rabbits; format: in vivo, rabbit; conditions: 8 weeks
Description: (§1) Male New Zealand white cross rabbits fed a high cholesterol (2%) diet were randomised to control or carnosine treatment 2% and plasma was assayed for cholesterol and triglycerides and carnosine. All animals received 100 g of food pellets/day and free access to water.
(§2) At the end of the 8 week treatment period, the rabbits were anaesthetised with pentobarbitone (325 mg/kg) and the total aorta removed. The arch, thoracic and abdominal regions were isolated by cutting the aorta circumferentially 1.0 cm proximal to the first pair of intercostal arteries and 0.3 cm above the coeliac artery. The adventitia was carefully dissected away, and the artery longitudinally cut to expose the intimal surface. The aorta was fixed in 10% buffered formalin for 48 hours. The lipid plaques in these vessels were then stained using Sudan IV and mounted with an aqueous mounting medium (Kaiser's Glycerol Jelly). The lesioned areas were directly traced from the mounted sections using an image analyser (Eye Com 850 image processor). Computer-aided planimetry was used to macroscopically determine the percentage of the affected area. Representative segments of atherosclerotic plaque were removed for confirmation by light microscopy. Results are expressed as mean ±SEM.
Coronary heart disease is one of the most common causes of deaths in diabetics and non-diabetics alike. […]

[3] = tested on: streptozotocin induced diabetic rat; assay: Formation of cataracts in streptozotocin induced diabetic rats; format: in vivo; conditions: after 8 week on carnosine diet (56 days), 2% in drinking water
Description: (§3) Male Sprague-Dawley rats weighing 200-250 g and 6 weeks of age were randomised to the following three treatment groups: control, diabetic, and carnosine-treated diabetic rats. Diabetes was induced with streptozotozen STZ(60 mg/kg body weight in citrate buffer, pH 4.5, i.v.), and all animals with plasma glucose levels >20 mM after 1 week were included in the study. Diabetic rats were randomised to receive either no therapy or 2% carnosine in drinking water.
Cataract is an opacification of the ocular lens sufficient to impair vision. Diabetes has been associated with cataract for many years and many laboratory experiments support the view that diabetes is the cause of one form of cataract. Diabetes in animals can be induced by streptozotozin and opacity of the lens starts to develop by 20 days after injection but dense opacities appear only after about 100 days depending on age at injection.
In cataract adducts of sugars to proteins including lens proteins have been identified and quantified. In most tissues there is little accumulation of late Maillard products even in diabetes but proteins in the lens nucleus have time not only to accumulate early glycation products but also for them to change into yellow Maillard products. […] Since this was measured at 56 days, the half way mark of the experiment, the trend indicates a reduction in cataract formation by carnosine feeding.

[4] = tested on: streptozotocin induced diabetic rat; assay: Albuminuria, glycated haemoglobin and blood glucose in diabetic rats; format: in vivo; conditions: week 8
Description: as §3

[5] = Body weight and organ weights of cholesterol-fed rabbits; format: in vivo, rabbit
Description: as §1, §2

diabetic models = conditions: 30 weeks of feeding; cited from earlier work

With `CC(=O)Nc1ccc2c(c1)Cc1ccccc1-2` [2AAF, reference compound] the “Revertants per Plate with TA 100, With S-9” value ([1]; positive control, dose not given) was 500.
With `NCCC(=O)N[C@@H](Cc1cnc[nH]1)C(=O)O` [carnosine, β-alanyl-L-histidine] the “Percent Area of Chromatogram, HMW” value (ovalbumin; after 7 hours, [A] 600 mM) was 9%, the “Percent Area of Chromatogram, LMW” value (ovalbumin; after 7 hours, [A] 600 mM) was 0% and the “Percent Area of Chromatogram, Monomer” value (ovalbumin; after 7 hours, [A] 600 mM) was 91%. For the same compound, the “Percent Area of Chromatogram, HMW” value (ovalbumin; after 7 hours, [B] 300 mn) was 6%, the “Percent Area of Chromatogram, LMW” value (ovalbumin; after 7 hours, [B] 300 mn) was 0% and the “Percent Area of Chromatogram, Monomer” value (ovalbumin; after 7 hours, [B] 300 mn) was 94%. The “Percent Area of Chromatogram, HMW” value (ovalbumin; after 7 hours, [C] 100 mM) was 3%, the “Percent Area of Chromatogram, LMW” value (ovalbumin; after 7 hours, [C] 100 mM) was 0% and the “Percent Area of Chromatogram, Monomer” value (ovalbumin; after 7 hours, [C] 100 mM) was 97%. The “Percent Area of Chromatogram, HMW” value (ovalbumin; after 7 hours, [D] 50 mM) was 25%, the “Percent Area of Chromatogram, LMW” value (ovalbumin; after 7 hours, [D] 50 mM) was 0% and the “Percent Area of Chromatogram, Monomer” value (ovalbumin; after 7 hours, [D] 50 mM) was 75%. The “effectiveness as anti-glycator, in words” value (ovalbumin) was “more effective at all concentrations compared to aminoguanidine”, the “effectiveness as anti-glycator, in words” value (ovalbumin; listed as Carnosine) was “reduced formation of high molecular weight compounds and was slightly more effective at low concentration compared to aminoguanidine” and the “Percent Area of Chromatogram, HMW” value (ovalbumin; t0 hours, [A] to [D] 600-50 mM) was 0%. The “Percent Area of Chromatogram, LMW” value (ovalbumin; t0 hours, [A] to [D] 600-50 mM) was 0%, the “Percent Area of Chromatogram, Monomer” value (ovalbumin; t0 hours, [A] to [D] 600-50 mM) was 100% and the “toxicity, in words” value (mammals; in vivo) was “virtually non-toxic”. The “level that can be administered” value (mammals; mammals) was 5-10 g/kg body weight, the “Resultant effects (appearance of albumin incubation)” value (bovine serum albumin) was “dark brown, fluid; also recorded: remained fluid” and the “Revertants per Plate with TA 100, With S-9” value ([1]; Dose 50 μl) was 179 ± 15. For the same compound, the “Revertants per Plate with TA 100, Without S-9” value ([1]; Dose 50 μl) was 154 ± 14, the “Revertants per Plate with TA 100, With S-9” value ([1]; Dose 250 μl) was 149 ± 13 and the “Revertants per Plate with TA 100, Without S-9” value ([1]; Dose 250 μl) was 158 ± 11. For the same compound, the mutagenicity ([1]; TA 100, with or without S-9) was “not mutagenic”, the “atherosclerotic plaque formation, in words” value [2] was “can reduce but not prevent plaque formation” and the “lens clarity compared to diabetic control group” value [3] was “higher clarity (less opacity)”. For the same compound, the “Blood Glucose (mean + SEM)” value [4] was 22.63 ± 3.00 mM, the “Percent Glycated Haemoglobin (HbAlc)” value [4] was 4.49 ± 0.14% and the “body weight versus control, in words” value ([5]; 8 week treatment period) was “no difference”. For the same compound, the “weight of various organs versus control, in words” value ([5]; 8 weeks) was “No difference”, the “Body Weight” value ([5]; Week 0) was 3.33 ± 0.09 kg and the “Body Weight” value ([5]; Week 8) was 2.68 ± 0.12 kg. The “Weight of organs, Heart” value ([5]; after 8 weeks treatment) was 6.12 ± 0.27 g, the “Weight of organs, Kidney” value ([5]; after 8 weeks treatment) was 17.53 ± 0.69 g and the “Weight of organs, Liver” value ([5]; after 8 weeks treatment) was 124.40 ± 6.36 g.
With `N=C(N)NN` [Aminoguanidine, aminoguanidine, reference compound] the “Percent Area of Chromatogram, HMW” value (ovalbumin; after 7 hours, [A] 600 mM) was 0%, the “Percent Area of Chromatogram, LMW” value (ovalbumin; after 7 hours, [A] 600 mM) was 69% and the “Percent Area of Chromatogram, Monomer” value (ovalbumin; after 7 hours, [A] 600 mM) was 31%. For the same compound, the “Percent Area of Chromatogram, HMW” value (ovalbumin; after 7 hours, [B] 300 mn) was 8%, the “Percent Area of Chromatogram, LMW” value (ovalbumin; after 7 hours, [B] 300 mn) was 72% and the “Percent Area of Chromatogram, Monomer” value (ovalbumin; after 7 hours, [B] 300 mn) was 20%. The “Percent Area of Chromatogram, HMW” value (ovalbumin; after 7 hours, [C] 100 mM) was 0%, the “Percent Area of Chromatogram, LMW” value (ovalbumin; after 7 hours, [C] 100 mM) was 49% and the “Percent Area of Chromatogram, Monomer” value (ovalbumin; after 7 hours, [C] 100 mM) was 41%. The “Percent Area of Chromatogram, HMW” value (ovalbumin; after 7 hours, [D] 50 mM) was 38%, the “Percent Area of Chromatogram, LMW” value (ovalbumin; after 7 hours, [D] 50 mM) was 22% and the “Percent Area of Chromatogram, Monomer” value (ovalbumin; after 7 hours, [D] 50 mM) was 40%. For the same compound, the “Percent Area of Chromatogram, HMW” value (ovalbumin; t0 hours, [A] to [D] 600-50 mM) was 0%, the “Percent Area of Chromatogram, LMW” value (ovalbumin; t0 hours, [A] to [D] 600-50 mM) was 0% and the “Percent Area of Chromatogram, Monomer” value (ovalbumin; t0 hours, [A] to [D] 600-50 mM) was 100%. The “amount of glycated haemoglobin” value (diabetic models) was “does not reduce”.
